{
  "source": "patent US10974293B2",
  "about": "“Device for phyto-ecological monitoring” (priority 2014, dated 2021)",
  "tested_on": "lettuce",
  "type": "in vivo, Lactuca vulgaris",
  "settings": "arsenic in water 0 to 100 ppm",
  "excerpt": "The arbuscular mycorrhizal spore germination and growth assay (a) consists of a glass slide (22) with a strip of blotter paper (25) of the same width as the glass slide overlain upon it. A semi-circle of gridded, nitrocellulose filter paper is laid on top of the blooter paper. Fungal spores are then placed into one or more segments of the grid, and then covered with a cover slip (not shown). The entire assembly is then held together using non-toxic retainer rings, or alternatively glued together with a non-toxic glue. When the glass slide assay is placed into the slider cartridge (21, FIG. 5) and then into the device of current invention, and deployed in the field and exposed to moisture, the spores produce hyphae, which can be quantitatively observed using optical microscope. The degree of branching of hyphae can be used as outcome of the assay and correlated with contaminants present in the soil and/or water. The small seed germination assay (b) (FIG. 6) also contains a glass slide with two layers of fitted blotter paper strips (25): first layer of fitied blotter paper is the strip without holes, and a second blotter paper strip which has holes of about 2-3 mm in diameter as shown in FIG. 6. Plant seeds (26) are placed in one or more holes, and the assembly is then covered with a standard laboratory cover slip and held together by a non-toxic retaining ring or a glue. […]",
  "note": "Where two headings read alike, the source gives them in different places.",
  "data": [
    {"smiles": "[AsH3]", "note": "[arsenic]", "values": [
      {"measurement": "root growth response to arsenic exposure", "setting": "horizontally grown seedlings", "value": "not evident"},
      {"measurement": "root growth response to arsenic exposure", "setting": "vertically oriented seedlings", "value": "hermetic response (enhanced growth at low concentrations of a toxicant)"}
    ]}
  ]
}
